Key:
[1] = Critical micellar concentration of the compound in 0.1 M PBS after 10 mins by Wilhelmy plate method using tensitometer; type: physicochemical; details: buffer
[2] = tested on: ECV-304; assay: Cytotoxicity against human ECV304 cells after 72 hrs by Hoechst 33258 staining based fluorescence assay; type: functional, cell-based; details: ECV-304, 72 h
[3] = Reduction in surface tension in 0.1 M PBS after 10 mins by Wilhelmy plate method using tensitometer; type: physicochemical
[4] = tested on: ECV-304; assay: Membranolytic activity in human ECV304 cells assessed as leakage of intracellular lactate dehydrogenase after 2 hrs by spectrophotometry; type: functional, cell-based; details: ECV-304, 2 h

Compound	CMC [1] [µM]	IC50 [2] [µM]	EC50 at 10 min [3] [µM]	IC50 [4] [µM]
C[C@@H]1O[C@@H](O[C@H]2[C@H](O[C@H]3CC[C@@]4(C)[C@@H](CC[C@]5(C)[C@@H]4CC=C4[C@@H]6CC(C)(C)CC[C@]6(C(=O)O)CC[C@]45C)[C@]3(C)CO)OC[C@H](O)[C@@H]2O)[C@H](O)[C@H](O)[C@H]1O [ALPHA-HEDERIN]	13	35	4	29
CC[C@H](CC[C@@H](C)[C@H]1CC[C@H]2[C@@H]3CC=C4C[C@@H](O)CC[C@]4(C)[C@H]3CC[C@]12C)C(C)C [BETA-SITOSTEROL]	241	61	19	472
C[C@@H]1CC[C@@]2(OC1)O[C@H]1[C@@H](O)[C@H]3[C@@H]4CC[C@H]5C[C@@H](O[C@@H]6O[C@H](CO)[C@H](O[C@@H]7O[C@H](CO)C(O)[C@H](O[C@@H]8OC[C@@H](O)[C@H](O)[C@H]8O)[C@H]7O[C@@H]7O[C@H](CO)[C@H](O)[C@H](O[C@@H]8O[C@H](CO)[C@@H](O)[C@H](O)[C@H]8O)[C@H]7O)[C@H](O)[C@H]6O)[C@H](O)C[C@]5(C)[C@H]4CC[C@]3(C)[C@H]1[C@@H]2C (some centres undefined) [DIGITONIN]	163	13	8	15
CC1(C)[C@@H](O)CC[C@]2(C)[C@H]3C(=O)C=C4[C@@H]5C[C@@](C)(C(=O)O)CC[C@]5(C)CC[C@@]4(C)[C@]3(C)CC[C@@H]12 [ENOXOLONE]	106	101	16	292
CC(C)=CCC[C@](C)(O)[C@H]1CC[C@]2(C)[C@@H]1[C@H](O)C[C@@H]1[C@@]3(C)CC[C@H](O)C(C)(C)[C@@H]3[C@@H](O[C@@H]3O[C@H](CO)[C@@H](O)[C@H](O)[C@H]3O[C@@H]3O[C@@H](C)[C@H](O)[C@@H](O)[C@H]3O)C[C@]12C [GINSENOSIDE RG2]	> 127	> 127	25	783
C[C@@H]1O[C@@H](O[C@H]2[C@H](O[C@H]3CC[C@@]4(C)[C@@H](CC[C@]5(C)[C@@H]4CC=C4[C@@H]6CC(C)(C)CC[C@]6(C(=O)O[C@@H]6O[C@H](CO[C@@H]7O[C@H](CO)[C@@H](O[C@@H]8O[C@@H](C)[C@H](O)[C@@H](O)[C@H]8O)[C@H](O)[C@H]7O)[C@@H](O)[C@H](O)[C@H]6O)CC[C@]45C)[C@]3(C)CO)OC[C@H](O)[C@@H]2O)[C@H](O)[C@H](O)[C@H]1O [KALOPANAXSAPONIN B]	82	> 164	10	> 164
